In ChEMBL document CHEMBL1201862, “PubChem BioAssay data set” (2004):
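These data come from cells grown in 96-well plates and exposed to compound for 48 hours at five concentrations. Abbreviation: GI50, concentration required for 50% inhibition of growth.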 Active and inactive are the calls of the source. Rule as the data show it: active = GI50 up to about 1.1 µM and inactive = higher.

Experiments:
Experiment in all cases: growth of human tumour cells (NCI), 48 h
[1] = test system: SF-295
[2] = test system: ACHN
[3] = test system: NCI-H226
[4] = test system: COLO 205
[5] = test system: SF-268
[6] = test system: MDA-N
[7] = test system: OVCAR-3
[8] = test system: CAKI-1
[9] = test system: SR
[10] = test system: IGROV-1
[11] = test system: MOLT-4
[12] = test system: MDA-MB-231
[13] = test system: HT-29
[14] = test system: MDA-MB-435
[15] = test system: HL-60
[16] = test system: TK-10
[17] = test system: LOX IMVI
[18] = test system: SNB-19
[19] = test system: M14
[20] = test system: PC-3

SMILES: CCOC(=O)N1CCN(C(=O)Nc2cccc3ccccc23)CC1
- GI50 [1]: > 10 µM (inactive)
- GI50 [2]: > 10 µM (inactive)
- GI50 [3]: > 10 µM (inactive)
- GI50 [4]: > 10 µM (inactive)
- GI50 [5]: > 10 µM (inactive)
- GI50 [6]: > 10 µM (inactive)
- GI50 [7]: > 10 µM (inactive)
- GI50 [8]: > 10 µM (inactive)
- GI50 [9]: > 10 µM (inactive)
- GI50 [10]: > 10 µM (inactive)
- GI50 [11]: > 10 µM (inactive)
- GI50 [12]: > 10 µM (inactive)
- GI50 [13]: > 10 µM (inactive)
- GI50 [14]: > 10 µM (inactive)
- GI50 [15]: > 10 µM (inactive)
- GI50 [16]: > 10 µM (inactive)
- GI50 [17]: > 10 µM (inactive)
- GI50 [18]: > 10 µM (inactive)
- GI50 [19]: > 10 µM (inactive)
- GI50 [20]: > 10 µM (inactive)

SMILES: OCC(CO)CC1COc2ccccc2O1 (configuration not stated)
- GI50 [1]: > 10 µM (inactive)
- GI50 [2]: > 10 µM (inactive)
- GI50 [3]: > 10 µM (inactive)
- GI50 [4]: > 10 µM (inactive)
- GI50 [5]: > 10 µM (inactive)
- GI50 [6]: > 10 µM (inactive)
- GI50 [7]: > 10 µM (inactive)
- GI50 [8]: > 10 µM (inactive)
- GI50 [9]: > 10 µM (inactive)
- GI50 [10]: > 10 µM (inactive)
- GI50 [11]: > 10 µM (inactive)
- GI50 [12]: > 10 µM (inactive)
- GI50 [13]: > 10 µM (inactive)
- GI50 [14]: > 10 µM (inactive)
- GI50 [15]: > 10 µM (inactive)
- GI50 [16]: > 10 µM (inactive)
- GI50 [17]: > 10 µM (inactive)
- GI50 [18]: > 10 µM (inactive)
- GI50 [19]: > 10 µM (inactive)
- GI50 [20]: > 10 µM (inactive)

SMILES: O=C1C2=C(C3=NCCc4c[nH]c1c43)C1(C=C(Br)C(O)C(Br)=C1)CCN2 (configuration not stated)
- GI50 [1]: 2.48 µM (inactive)
- GI50 [3]: 3.4 µM (inactive)
- GI50 [4]: 0.115 µM (active)
- GI50 [5]: 0.966 µM (active)
- GI50 [7]: 1.03 µM (active)
- GI50 [8]: 4.4 µM (inactive)
- GI50 [10]: 0.881 µM (active)
- GI50 [11]: 0.721 µM (active)
- GI50 [13]: 0.312 µM (active)
- GI50 [15]: 0.558 µM (active)
- GI50 [17]: 0.736 µM (active)
- GI50 [18]: 11.1 µM (inactive)

SMILES: CC(C)C1OC(=O)/C=C/C=C/C=C/C=C/C=C/CC(O)C(C)C(O)CC(O)CC(O)CC(O)CC(O)CC(O)CC(O)/C=C/C1C (configuration not stated)
- GI50 [1]: > 100 µM (inactive)
- GI50 [2]: > 100 µM (inactive)
- GI50 [5]: > 100 µM (inactive)
- GI50 [7]: > 100 µM (inactive)
- GI50 [9]: > 100 µM (inactive)
- GI50 [10]: > 100 µM (inactive)
- GI50 [11]: > 100 µM (inactive)
- GI50 [13]: > 100 µM (inactive)
- GI50 [14]: > 100 µM (inactive)
- GI50 [15]: > 100 µM (inactive)
- GI50 [16]: > 100 µM (inactive)
- GI50 [18]: > 100 µM (inactive)
- GI50 [19]: > 100 µM (inactive)
- GI50 [20]: > 100 µM (inactive)

SMILES: CNC(=O)SCC(NC(=O)CCC(N)C(=O)O)C(=O)NCC(=O)O (configuration not stated)
- GI50 [1]: > 100 µM (inactive)
- GI50 [3]: > 100 µM (inactive)
- GI50 [4]: 51.2 µM (inactive)
- GI50 [5]: > 80.4 µM (inactive)
- GI50 [7]: > 100 µM (inactive)
- GI50 [8]: > 100 µM (inactive)
- GI50 [10]: > 100 µM (inactive)
- GI50 [11]: 60.8 µM (inactive)
- GI50 [13]: > 84.5 µM (inactive)
- GI50 [15]: > 31.6 µM (inactive)
- GI50 [17]: 67.9 µM (inactive)
- GI50 [18]: > 100 µM (inactive)

SMILES: CC(C)=CCc1c(C)cc2cc3c(c(O)c2c1O)C(=O)C=C(O)C3(CC=C(C)C)C/C=C(\C)CO (configuration not stated)
- GI50 [1]: 45.2 µM (inactive)
- GI50 [3]: 34.2 µM (inactive)
- GI50 [4]: 40.5 µM (inactive)
- GI50 [5]: 36.7 µM (inactive)
- GI50 [7]: 36.9 µM (inactive)
- GI50 [8]: 46.3 µM (inactive)
- GI50 [10]: 38.1 µM (inactive)
- GI50 [11]: 23.2 µM (inactive)
- GI50 [13]: 37.2 µM (inactive)
- GI50 [15]: 19.4 µM (inactive)
- GI50 [17]: 38.5 µM (inactive)
- GI50 [18]: 39.8 µM (inactive)

SMILES: CCOC(=O)C1(C(=O)OCC)CSC1
- GI50 [1]: > 100 µM (inactive)
- GI50 [2]: > 100 µM (inactive)
- GI50 [3]: > 100 µM (inactive)
- GI50 [4]: > 100 µM (inactive)
- GI50 [5]: > 100 µM (inactive)
- GI50 [6]: > 100 µM (inactive)
- GI50 [7]: > 100 µM (inactive)
- GI50 [9]: > 100 µM (inactive)
- GI50 [11]: > 100 µM (inactive)
- GI50 [12]: > 100 µM (inactive)
- GI50 [13]: > 100 µM (inactive)
- GI50 [14]: > 100 µM (inactive)
- GI50 [16]: > 100 µM (inactive)
- GI50 [17]: > 100 µM (inactive)
- GI50 [18]: > 100 µM (inactive)
- GI50 [19]: > 100 µM (inactive)
- GI50 [20]: > 100 µM (inactive)

SMILES: CC(=O)OC/C=C\Cn1nc(Br)c(=O)[nH]c1=O
- GI50 [2]: 7.87 µM (inactive)
- GI50 [3]: 12.9 µM (inactive)
- GI50 [4]: 13.5 µM (inactive)
- GI50 [5]: 14.9 µM (inactive)
- GI50 [6]: 15.6 µM (inactive)
- GI50 [7]: 9.75 µM (inactive)
- GI50 [8]: 10.7 µM (inactive)
- GI50 [9]: 4.06 µM (inactive)
- GI50 [10]: 15 µM (inactive)
- GI50 [12]: 18 µM (inactive)
- GI50 [14]: 14.6 µM (inactive)
- GI50 [15]: 4.69 µM (inactive)
- GI50 [16]: 19.1 µM (inactive)
- GI50 [17]: 6.75 µM (inactive)
- GI50 [18]: 18.7 µM (inactive)
- GI50 [19]: 14.9 µM (inactive)
- GI50 [20]: 13.2 µM (inactive)

SMILES: O=C1c2ccccc2C(=O)N1CC(CN1C(=O)c2ccccc2C1=O)(C(=O)OCc1ccccc1)C(=O)OCc1ccccc1
- GI50 [1]: > 100 µM (inactive)
- GI50 [3]: > 100 µM (inactive)
- GI50 [4]: > 100 µM (inactive)
- GI50 [6]: > 100 µM (inactive)
- GI50 [7]: > 100 µM (inactive)
- GI50 [8]: > 100 µM (inactive)
- GI50 [9]: > 100 µM (inactive)
- GI50 [10]: > 100 µM (inactive)
- GI50 [11]: 7.36 µM (inactive)
- GI50 [12]: > 100 µM (inactive)
- GI50 [13]: > 100 µM (inactive)
- GI50 [14]: > 100 µM (inactive)
- GI50 [15]: > 100 µM (inactive)
- GI50 [18]: > 100 µM (inactive)
- GI50 [19]: > 100 µM (inactive)
- GI50 [20]: > 100 µM (inactive)

SMILES: C=CCN1C(=O)/C(=C/c2cccs2)N=C1SC1OC(COC(=O)c2ccccc2)C(OC(=O)c2ccccc2)C1OC(=O)c1ccccc1 (configuration not stated)
- GI50 [1]: > 100 µM (inactive)
- GI50 [2]: > 100 µM (inactive)
- GI50 [3]: > 100 µM (inactive)
- GI50 [4]: > 100 µM (inactive)
- GI50 [7]: > 100 µM (inactive)
- GI50 [8]: > 100 µM (inactive)
- GI50 [9]: > 100 µM (inactive)
- GI50 [10]: > 100 µM (inactive)
- GI50 [11]: > 100 µM (inactive)
- GI50 [12]: > 100 µM (inactive)
- GI50 [14]: > 100 µM (inactive)
- GI50 [15]: > 100 µM (inactive)
- GI50 [16]: > 100 µM (inactive)
- GI50 [17]: > 100 µM (inactive)
- GI50 [20]: > 100 µM (inactive)

SMILES: NC(=O)Nc1ccc(C(=O)NCCCNC(=O)c2ccc(NC(N)=O)cc2)cc1
- GI50 [2]: > 100 µM (inactive)
- GI50 [3]: > 100 µM (inactive)
- GI50 [4]: > 100 µM (inactive)
- GI50 [5]: > 100 µM (inactive)
- GI50 [6]: > 100 µM (inactive)
- GI50 [8]: > 100 µM (inactive)
- GI50 [9]: > 100 µM (inactive)
- GI50 [10]: > 100 µM (inactive)
- GI50 [11]: > 100 µM (inactive)
- GI50 [13]: > 100 µM (inactive)
- GI50 [14]: > 100 µM (inactive)
- GI50 [15]: > 100 µM (inactive)
- GI50 [16]: > 100 µM (inactive)
- GI50 [17]: > 100 µM (inactive)
- GI50 [18]: > 100 µM (inactive)
- GI50 [19]: > 100 µM (inactive)
- GI50 [20]: > 100 µM (inactive)

SMILES: O=C1C=C(N2CC2)C(=O)C=C1N1CC1
- GI50 [1]: 0.155 µM (active)
- GI50 [2]: 0.0423 µM (active)
- GI50 [3]: 0.418 µM (active)
- GI50 [4]: 0.0984 µM (active)
- GI50 [5]: 0.155 µM (active)
- GI50 [6]: 0.515 µM (active)
- GI50 [7]: 0.0889 µM (active)
- GI50 [8]: < 0.0148 µM (active)
- GI50 [9]: 0.0258 µM (active)
- GI50 [10]: 0.753 µM (active)
- GI50 [11]: 0.0344 µM (active)
- GI50 [12]: 2.3 µM (inactive)
- GI50 [13]: 0.204 µM (active)
- GI50 [14]: 1.23 µM (inactive)
- GI50 [15]: 0.0265 µM (active)
- GI50 [16]: 0.136 µM (active)
- GI50 [17]: 0.0849 µM (active)
- GI50 [18]: 0.904 µM (active)
- GI50 [19]: 0.091 µM (active)
- GI50 [20]: 1.11 µM (active)
